Data on 16 compounds can be found in patent US20260297081A1, “COMPOUNDS AND METHODS OF TREATING CANCERS” (Cullgen Inc., priority 2023, published 2026).

For one test, the system named is MCF7 cells. As to the kind of experiment: Anti-proliferation (viability) of MCF7 cells (Table 7, FIG. 2B). Type of test: cell-based. The settings on record: Homo sapiens, MCF7, MCF7 cells, 3-6 days, 10-point serial dilution; read-out: GI IC50 in MCF-7.
In the next test the target is CDK4 (Homo sapiens, UniProt P11802+Q16531). As to the kind of experiment: CDK4 percentage degradation in Calu-1 cells (Table 6). Type of test: cell-based. Further details: Cells that express cyclin D1-3 and CDK4/6 proteins were treated with heterobifunctional compounds; endogenous in cells; host or cells: Calu-1. As to conditions: 16 hours; for inhibition at 0.04 µM: 40 nM; for inhibition at 0.2 µM: 200 nM. Put shortly: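 Calu-1 cells exposed to heterobifunctional compounds at 40 nM or 200 nM for 16 h. Cyclin D1 and CDK4 levels measured by Western blot of RIPA lysates (BCA-normalised loading), bands quantified by densitometry and expressed as percentage degradation.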
Chain of CDK4 (P11802 2-303 limits assumed): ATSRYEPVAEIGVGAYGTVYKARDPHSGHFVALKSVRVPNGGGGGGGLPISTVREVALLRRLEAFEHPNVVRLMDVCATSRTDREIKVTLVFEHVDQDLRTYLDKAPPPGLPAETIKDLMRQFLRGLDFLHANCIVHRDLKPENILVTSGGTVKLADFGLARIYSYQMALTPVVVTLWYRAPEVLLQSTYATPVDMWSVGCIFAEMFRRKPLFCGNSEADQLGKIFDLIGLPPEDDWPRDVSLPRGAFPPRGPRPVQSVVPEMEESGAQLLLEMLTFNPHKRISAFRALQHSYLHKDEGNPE
Chain of CDK4 (P24385 whole entry partner): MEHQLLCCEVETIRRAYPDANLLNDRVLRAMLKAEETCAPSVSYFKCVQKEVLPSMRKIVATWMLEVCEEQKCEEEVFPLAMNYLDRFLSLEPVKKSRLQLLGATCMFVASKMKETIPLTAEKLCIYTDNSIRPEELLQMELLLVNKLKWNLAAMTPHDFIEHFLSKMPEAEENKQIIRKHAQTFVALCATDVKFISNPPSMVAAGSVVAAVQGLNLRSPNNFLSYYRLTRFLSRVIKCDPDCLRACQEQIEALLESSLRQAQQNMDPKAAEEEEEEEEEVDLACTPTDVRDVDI
Chain of CDK4 (Q16531 2-1140 limits assumed): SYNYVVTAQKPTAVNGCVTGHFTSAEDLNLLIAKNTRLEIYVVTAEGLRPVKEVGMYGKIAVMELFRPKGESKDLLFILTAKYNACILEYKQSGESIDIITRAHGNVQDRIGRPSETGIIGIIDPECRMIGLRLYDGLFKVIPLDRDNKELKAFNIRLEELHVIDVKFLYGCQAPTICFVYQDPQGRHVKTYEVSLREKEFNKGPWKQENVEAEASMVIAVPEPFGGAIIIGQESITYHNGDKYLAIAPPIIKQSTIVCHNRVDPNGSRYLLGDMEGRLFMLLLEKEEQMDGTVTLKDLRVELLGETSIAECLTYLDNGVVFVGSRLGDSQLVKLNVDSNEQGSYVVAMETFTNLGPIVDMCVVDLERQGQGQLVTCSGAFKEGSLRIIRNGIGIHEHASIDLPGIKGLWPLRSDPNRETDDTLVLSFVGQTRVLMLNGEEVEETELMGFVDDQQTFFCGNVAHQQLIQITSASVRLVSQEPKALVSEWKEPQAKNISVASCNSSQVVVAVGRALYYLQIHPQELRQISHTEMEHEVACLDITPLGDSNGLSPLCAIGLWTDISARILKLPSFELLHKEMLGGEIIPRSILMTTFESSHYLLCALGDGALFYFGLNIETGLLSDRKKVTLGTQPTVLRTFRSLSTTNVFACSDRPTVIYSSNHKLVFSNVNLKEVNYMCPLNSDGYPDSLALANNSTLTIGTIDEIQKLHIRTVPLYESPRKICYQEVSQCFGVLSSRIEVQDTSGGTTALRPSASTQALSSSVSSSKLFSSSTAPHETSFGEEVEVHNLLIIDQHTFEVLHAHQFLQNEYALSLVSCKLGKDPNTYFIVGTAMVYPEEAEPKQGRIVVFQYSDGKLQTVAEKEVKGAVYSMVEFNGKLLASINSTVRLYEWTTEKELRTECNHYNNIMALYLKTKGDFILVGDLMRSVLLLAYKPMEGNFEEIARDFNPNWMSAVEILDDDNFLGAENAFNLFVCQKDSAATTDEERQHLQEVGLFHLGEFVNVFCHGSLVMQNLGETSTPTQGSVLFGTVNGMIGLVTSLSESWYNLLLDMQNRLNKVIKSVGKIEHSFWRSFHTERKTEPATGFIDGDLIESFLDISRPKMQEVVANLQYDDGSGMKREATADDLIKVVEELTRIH

In the case of `[2H]C([2H])([2H])Nc1ccc(C(=O)Nc2ccc(N(C)C)nn2)c(NC2CC(CNC(=O)CN3CCC4(CCN(c5ccc(Nc6ncc7c(C)c(C(C)=O)c(=O)n(C8CCCC8)c7n6)nc5)C4)C3)C2)n1` (stereo not drawn) [CPD-445, 2-((3-((2-(7-(6-((6-acetyl-8-cyclopentyl-5-methyl-7-oxo-7,8-dihydropyrido[2,3-d]pyrimidin-2-yl)amino)pyridin-3-yl)-2,7-diazaspiro[4.4]nonan-2-yl)acetamido)methyl)cyclobutyl)amino)-N-(6-(dimethylamino)pyridazin-3-yl)-6-((methyl-d3)amino)nicotinamide], in the test on MCF7 cells, the IC50 (usually the midpoint of a concentration-inhibition curve) is below 50 nM.
In the case of `CC(=O)c1c(C)c2cnc(N(C)c3ccc(N4CCN(CCC(=O)N5CC6(CC(Nc7nc(NC(C)C)ccc7C(=O)Nc7cc(C)n(C)n7)C6)C5)CC4)cn3)nc2n(C2CCCC2)c1=O` [CPD-404, 2-((2-(3-(4-(6-((6-acetyl-8-cyclopentyl-5-methyl-7-oxo-7,8-dihydropyrido[2,3-d]pyrimidin-2-yl)(methyl)amino)pyridin-3-yl)piperazin-1-yl)propanoyl)-2-azaspiro[3.3]heptan-6-yl)amino)-N-(1,5-dimethyl-1H-pyrazol-3-yl)-6-(isopropylamino)nicotinamide], the IC50 with MCF7 cells is above 100 nM.
Consider `CC(=O)c1c(C)c2cnc(Nc3ccc(N4CCC5(CCN(CC(=O)N6CC7(CC(Nc8nc(NC(C)C)ccc8C(=O)Nc8cn(C)c(C9CC9)n8)C7)C6)C5)C4)cn3)nc2n(C2CCCC2)c1=O` (stereo not drawn) [CPD-444, 2-((2-(2-(7-(6-((6-acetyl-8-cyclopentyl-5-methyl-7-oxo-7,8-dihydropyrido[2,3-d]pyrimidin-2-yl)amino)pyridin-3-yl)-2,7-diazaspiro[4.4]nonan-2-yl)acetyl)-2-azaspiro[3.3]heptan-6-yl)amino)-N-(2-cyclopropyl-1-methyl-1H-imidazol-4-yl)-6-(isopropylamino)nicotinamide], for which the IC50 with MCF7 cells was below 50 nM.
As for `CC(=O)c1c(C)c2cnc(Nc3ccc(CN4CCN(CC(=O)N5CCC(Nc6nc(NC(C)C)ccc6C(=O)Nc6cn(C)c(C7CC7)n6)CC5)CC4)cn3)nc2n(C2CCCC2)c1=O` [CPD-420, 2-((1-(2-(4-((6-((6-acetyl-8-cyclopentyl-5-methyl-7-oxo-7,8-dihydropyrido[2,3-d]pyrimidin-2-yl)amino)pyridin-3-yl)methyl)piperazin-1-yl)acetyl)piperidin-4-yl)amino)-N-(2-cyclopropyl-1-methyl-1H-imidazol-4-yl)-6-(isopropylamino)nicotinamide], in the test with MCF7 cells, the IC50 is above 100 nM.
With `CNc1ccc(C(=O)Nc2cn(C)c(C(C)O)n2)c(NC2CC3(CC(NC(=O)CN4CCN(c5ccc(Nc6ncc7c(C)c(C(C)=O)c(=O)n(C8CCCC8)c7n6)nc5)CC4)C3)C2)n1` (stereo not drawn) [CPD-330, 2-((6-(2-(4-(6-((6-acetyl-8-cyclopentyl-5-methyl-7-oxo-7,8-dihydropyrido[2,3-d]pyrimidin-2-yl)amino)pyridin-3-yl)piperazin-1-yl)acetamido)spiro[3.3]heptan-2-yl)amino)-N-(2-(1-hydroxyethyl)-1-methyl-1H-imidazol-4-yl)-6-(methylamino)nicotinamide], the IC50 in the test on MCF7 cells was above 100 nM.
Regarding `CNc1ccc(C(=O)Nc2nc(C)c(C)o2)c(NC2CC3(CC(NC(=O)CN4CCN(c5ccc(Nc6ncc7c(C)c(C(C)=O)c(=O)n(C8CCCC8)c7n6)nc5)CC4)C3)C2)n1` (stereo not drawn) [CPD-247, 2-((6-(2-(4-(6-((6-acetyl-8-cyclopentyl-5-methyl-7-oxo-7,8-dihydropyrido[2,3-d]pyrimidin-2-yl)amino)pyridin-3-yl)piperazin-1-yl)acetamido)spiro[3.3]heptan-2-yl)amino)-N-(4,5-dimethyloxazol-2-yl)-6-(methylamino)nicotinamide], at CDK4, the inhibition (as a rule, the percentage by which the read-out fell short of the control) at 0.04 µM was in the range of 50 to 80% and the inhibition at 0.2 µM was in the range of 50 to 80%.
On CDK4, `CNc1ccc(C(=O)Nc2ccc(N(C)C)nn2)c(NC2CC3(C2)CN(C(=O)C(C)CN2CCN(c4ccc(Nc5ncc6c(C)c(C(C)=O)c(=O)n(C7CCCC7)c6n5)nc4)CC2)C3)n1` (stereo not drawn) [CPD-117, 2-((2-(3-(4-(6-((6-Acetyl-8-cyclopentyl-5-methyl-7-oxo-7,8-dihydropyrido[2,3-d]pyrimidin-2-yl)amino)pyridin-3-yl)piperazin-1-yl)-2-methylpropanoyl)-2-azaspiro[3.3]heptan-6-yl)amino)-N-(6-(dimethylamino)pyridazin-3-yl)-6-(methylamino)nicotinamide] had an inhibition at 0.04 µM of 50 to 80% and an inhibition at 0.2 µM of 50 to 80%.
On CDK4, `CNc1ccc(C(=O)Nc2nc(C3CC3)ccc2C)c(NCCCCCNC(=O)CN2CCN(c3ccc(Nc4ncc5c(C)c(C(C)=O)c(=O)n(C6CCCC6)c5n4)nc3)CC2)n1` [CPD-61, 2-((5-(2-(4-(6-((6-Acetyl-8-cyclopentyl-5-methyl-7-oxo-7,8-dihydropyrido[2,3-d]pyrimidin-2-yl)amino)pyridin-3-yl)piperazin-1-yl)acetamido)pentyl)amino)-N-(6-cyclopropyl-3-methylpyridin-2-yl)-6-(methylamino)nicotinamide] yielded an inhibition at 0.04 µM below 30% and an inhibition at 0.2 µM below 30%.
As to `CNc1ccc(C(=O)Nc2ccc(N(C)C)nn2)c(Nc2cnn(CCNC(=O)CN3CCN(c4ccc(Nc5ncc6c(C)c(C(C)=O)c(=O)n(C7CCCC7)c6n5)nc4)CC3)n2)n1` [CPD-25, 2-((2-(2-(2-(4-(6-((6-Acetyl-8-cyclopentyl-5-methyl-7-oxo-7,8-dihydropyrido[2,3-d]pyrimidin-2-yl)amino)pyridin-3-yl)piperazin-1-yl)acetamido)ethyl)-2H-1,2,3-triazol-4-yl)amino)-N-(6-(dimethylamino)pyridazin-3-yl)-6-(methylamino)nicotinamide], at CDK4, the inhibition at 0.04 µM was below 30% and the inhibition at 0.2 µM lay in the range of 50 to 80%.
The like results for `COc1ccc(NC(=O)c2ccc(C)nc2NCCCCCCCNC(=O)CN2CCN(c3ccc(Nc4ncc5c(C)c(C(C)=O)c(=O)n(C6CCCC6)c5n4)nc3)CC2)nn1` [CPD-2, 2-((7-(2-(4-(6-((6-acetyl-8-cyclopentyl-5-methyl-7-oxo-7,8-dihydropyrido[2,3-d]pyrimidin-2-yl)amino)pyridin-3-yl)piperazin-1-yl)acetamido)heptyl)amino)-N-(6-methoxypyridazin-3-yl)-6-methylnicotinamide] were, in that order, 50 to 80% and above 80%.
The like results for `CC(=O)c1c(C)c2cnc(Nc3ccc(N4CCN(CC(=O)NCC5CC(Nc6nc(C(C)C)ccc6C(=O)Nc6cc(C)n(C)n6)C5)CC4)cn3)nc2n(C2CCCC2)c1=O` (stereo not drawn) [CPD-212, 2-((3-((2-(4-(6-((6-acetyl-8-cyclopentyl-5-methyl-7-oxo-7,8-dihydropyrido[2,3-d]pyrimidin-2-yl)amino)pyridin-3-yl)piperazin-1-yl)acetamido)methyl)cyclobutyl)amino)-N-(1,5-dimethyl-1H-pyrazol-3-yl)-6-isopropylnicotinamide] were, in that order, 30 to 50% and 50 to 80%.
The like results for `CNc1ccc(C(=O)Nc2ccc(C3CC3)nn2)c(NCCCCCNC(=O)CN2CCN(c3ccc(Nc4ncc5c(C)c(C(C)=O)c(=O)n(C6CCCC6)c5n4)nc3)CC2)n1` [CPD-31, 2-((5-(2-(4-(6-((6-Acetyl-8-cyclopentyl-5-methyl-7-oxo-7,8-dihydropyrido[2,3-d]pyrimidin-2-yl)amino)pyridin-3-yl)piperazin-1-yl)acetamido)pentyl)amino)-N-(6-cyclopropylpyridazin-3-yl)-6-(methylamino)nicotinamide] were, in that order, below 30% and 50 to 80%.
On CDK4, `CNc1ccc(C(=O)Nc2ccn(C)n2)c(NCCCCCNC(=O)CN2CCN(c3ccc(Nc4ncc5c(C)c(C(C)=O)c(=O)n(C6CCCC6)c5n4)nc3)CC2)n1` [CPD-49, 2-((5-(2-(4-(6-((6-Acetyl-8-cyclopentyl-5-methyl-7-oxo-7,8-dihydropyrido[2,3-d]pyrimidin-2-yl)amino)pyridin-3-yl)piperazin-1-yl)acetamido)pentyl)amino)-N-(1-methyl-1H-pyrazol-3-yl)-6-(methylamino)nicotinamide] showed an inhibition at 0.04 µM of 50 to 80% and an inhibition at 0.2 µM of 50 to 80%.
On CDK4, `CC(=O)c1c(C)c2cnc(Nc3ccc(N4CCN(CC(=O)NCCC5CC(Nc6nc(C7CC7)ccc6C(=O)Nc6ccc(C)c(C7CC7)n6)C5)CC4)cn3)nc2n(C2CCCC2)c1=O` (stereo not drawn) [CPD-45, 2-((3-(2-(2-(4-(6-((6-Acetyl-8-cyclopentyl-5-methyl-7-oxo-7,8-dihydropyrido[2,3-d]pyrimidin-2-yl)amino)pyridin-3-yl)piperazin-1-yl)acetamido)ethyl)cyclobutyl)amino)-6-cyclopropyl-N-(6-cyclopropyl-5-methylpyridin-2-yl)nicotinamide] registered an inhibition at 0.04 µM below 30% and an inhibition at 0.2 µM below 30%.
At CDK4, `[2H]C([2H])([2H])Nc1ccc(C(=O)Nc2cn(C)c(C3CC3)n2)c(NC2CCN(C(=O)CN3CCN(c4ccc(Nc5ncc6c(C)c(C(C)=O)c(=O)n(C7CCCC7)c6n5)nc4)CC3)CC2)n1` [CPD-236, 2-((1-(2-(4-(6-((6-acetyl-8-cyclopentyl-5-methyl-7-oxo-7,8-dihydropyrido[2,3-d]pyrimidin-2-yl)amino)pyridin-3-yl)piperazin-1-yl)acetyl)piperidin-4-yl)amino)-N-(2-cyclopropyl-1-methyl-1H-imidazol-4-yl)-6-((methyl-d3)amino)nicotinamide] displayed an inhibition at 0.04 µM of 30 to 50% and an inhibition at 0.2 µM of 50 to 80%.
Take `CNc1ccc(C(=O)Nc2ccc(N(C)C)nn2)c(NC2CC3(CC(NCC(=O)N4CCN(c5ccc(Nc6ncc7c(C)c(C(C)=O)c(=O)n(C8CCCC8)c7n6)nc5)CC4)C3)C2)n1` (stereo not drawn) [CPD-78, 2-((6-((2-(4-(6-((6-Acetyl-8-cyclopentyl-5-methyl-7-oxo-7,8-dihydropyrido[2,3-d]pyrimidin-2-yl)amino)pyridin-3-yl)piperazin-1-yl)-2-oxoethyl)amino)spiro[3.3]heptan-2-yl)amino)-N-(6-(dimethylamino)pyridazin-3-yl)-6-(methylamino)nicotinamide]: on CDK4, the inhibition at 0.04 µM lay in the range of 50 to 80% and the inhibition at 0.2 µM was in the range of 50 to 80%.
